Measured values published in patent EP0956287B1, “3-ARYL-2-(1-SUBSTITUTED-4-PIPERIDINYL)-1(1-DI)OXO-3H-BENZO D]-ISOTHIAZOLE DERIVATIVES, THEIR PREPARATION AND THEIR USE AS MODULATORS OF NEUROTRANSMITTER FUNCTION” (Aventis Pharmaceuticals Inc., priority 1996, dated 1998).
Counter-ions that a name gives are not always drawn.

Tests used:
Format in all cases: biochemical
dopamine (DA) uptake = molecular target: T1, dopamine (DA) uptake (Rattus norvegicus, UniProt P23977); assay: Inhibition of 3H-dopamine uptake in rat striatal synaptosomes; conditions: head says whole brain synaptosomes, method uses striatal synaptosomes, 3H-DA 50 nM
T1 construct: Corpora striata are rapidly removed, weighed and homogenized in 9 volumes of ice-cold 0.32 M sucrose; from tissue; host or cells: rat corpora striata, crude synaptosomal supernatant (S1)
T1 sequence (P23977 whole entry): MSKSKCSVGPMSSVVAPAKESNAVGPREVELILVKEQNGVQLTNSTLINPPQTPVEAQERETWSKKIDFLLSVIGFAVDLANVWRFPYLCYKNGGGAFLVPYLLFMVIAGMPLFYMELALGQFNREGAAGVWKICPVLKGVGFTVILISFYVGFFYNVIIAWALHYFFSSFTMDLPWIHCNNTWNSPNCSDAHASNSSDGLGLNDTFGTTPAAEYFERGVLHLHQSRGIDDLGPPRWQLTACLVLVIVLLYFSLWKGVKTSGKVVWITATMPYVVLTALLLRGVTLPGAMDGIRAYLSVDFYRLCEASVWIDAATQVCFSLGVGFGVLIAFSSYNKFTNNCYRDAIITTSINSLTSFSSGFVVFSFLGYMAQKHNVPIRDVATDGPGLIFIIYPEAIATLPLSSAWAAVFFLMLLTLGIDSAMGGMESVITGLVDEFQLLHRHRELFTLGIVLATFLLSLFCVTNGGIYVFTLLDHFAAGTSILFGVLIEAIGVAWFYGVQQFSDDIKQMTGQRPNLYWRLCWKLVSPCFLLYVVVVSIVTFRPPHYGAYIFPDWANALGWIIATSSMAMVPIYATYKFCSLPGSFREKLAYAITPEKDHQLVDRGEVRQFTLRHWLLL
Experimental: Inhibition of ^3H-Dopamine Uptake in Rat Striatal Synaptosomes
this assay is used to show differential drug effects on dopamine uptake versus nerepppinephrine uptake and to identify therapeutic agents for diseases where the potentiation of dopaminergic activity may be helpful (e.g. Parkinson's Disease).
(§1) A. Animals: Male CR Wistar rats (100-125 g).
1. Krebs-Henseleit Bicarbonate Buffer, pH 7.4 (KHBB): Make a 1 liter batch containing the following salts:
Aerate for 60 minutes with 95% O2/5% CO2, check pH (7.4±0.1). 2. 0.32 M Sucrose: 21.9 g of sucrose, bring to 200 ml. 3. Dopamine HCl is obtained from Sigma Chemical Co. A 0.1 mM stock solution is made up in 0.01N HCI. This is used to dilute the specific activity of radiolabeled 5 HT. 4. 3,4-[8-^3H(N)]-Dihydroxyphenylethylamine (Dopamine), specific activity 4-34 Ci/mmol is obtained from New England Nuclear. The final desired concentration of ^3H-DA in the assay is 50 nM. The dilution factor is 0.9. Therefore, the KHBB is made up to contain 55.5 nM [^3H]-5 DA. Add to 100 ml of KHBB.
5. For most assays, a 1mM stock solution of the test compound is made up in a suitable solvent and serially diluted such that the final concentration in the assay ranges from 2 x 10^-8 to 2 x 10^-5 M. Seven concentrations are used for each assay. Higher or lower concentrations may be used depending on the potency of the compound.
Male Wistar rats are decapitated and the brain rapidly removed. Corpora striata are rapidly removed, weighed and homogenized in 9 volumes of ice-cold 0.32 M sucrose using a Potter-Elvejhem homogenizer. Homogenization should be done with 4-5 up and down strokes at medium speeds to minimize synaptosome lysis. The homogenate is centrifuged at 1000 g for 10 minutes at 0°- 4°C. The supernatant (S1) is decanted and is used for uptake experiments.
• 900 µl KHBB + [^3H]-DA. • 20 µl Vehicle or appropriate drug concentration • 100 µl Tissue suspension
(§2) Tubes are incubated at 37°C under a 95% O2/5% CO2 atmosphere for 5 minutes. For each assay, 3 tubes are incubated with 20 µl of vehicle at 0°C in an ice bath. After incubation all tubes are immediately centrifuged at 4000 g for 10 minutes. The supernatant fluid is aspirated and the pellets dissolved by adding 1 ml of solubilizer (Triton® X-100 + 50% EtOH, 1:4 v/v). The tubes are vigorously shaken, decanted into scintillation vials, and counted in 10 ml of Liquiscint® scintillation counting cocktail. Active uptake is the difference between cpm at 37°C and 0°C. The percent inhibition at each drug concentration is the mean of three determinations. IC50 values are derived from log-probit analysis.

serotonin (5HT) uptake = molecular target: T2, serotonin (5HT) uptake (Rattus norvegicus, UniProt P31652); assay: Inhibition of [3H]-serotonin uptake in rat whole brain synaptosomes; conditions: [3H]-5 HT 50 nM
T2 construct: Whole brain minus cerebella is weighed and homogenized in 9 volumes of ice-cold 0.32 M sucrose; from tissue; host or cells: rat whole brain minus cerebella, crude synaptosomal supernatant (S1)
T2 sequence (P31652 whole entry): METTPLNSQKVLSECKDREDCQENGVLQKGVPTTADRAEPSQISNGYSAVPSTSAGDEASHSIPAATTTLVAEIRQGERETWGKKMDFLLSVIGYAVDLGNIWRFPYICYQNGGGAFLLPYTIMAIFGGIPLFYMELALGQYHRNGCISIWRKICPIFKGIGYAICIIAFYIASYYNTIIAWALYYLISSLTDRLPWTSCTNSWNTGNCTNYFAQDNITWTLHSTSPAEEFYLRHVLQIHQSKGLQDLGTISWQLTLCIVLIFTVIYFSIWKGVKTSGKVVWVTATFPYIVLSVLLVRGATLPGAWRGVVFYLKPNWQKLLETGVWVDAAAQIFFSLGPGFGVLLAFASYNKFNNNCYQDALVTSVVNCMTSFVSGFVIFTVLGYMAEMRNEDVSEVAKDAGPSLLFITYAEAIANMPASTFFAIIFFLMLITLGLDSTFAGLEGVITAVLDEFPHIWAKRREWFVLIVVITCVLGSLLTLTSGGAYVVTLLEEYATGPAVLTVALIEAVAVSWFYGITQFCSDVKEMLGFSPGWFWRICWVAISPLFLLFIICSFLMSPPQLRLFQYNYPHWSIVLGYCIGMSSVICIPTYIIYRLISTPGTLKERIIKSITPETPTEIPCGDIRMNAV
Experimental: Inhibition of [^3H]-Serotonin Uptake in Rat Whole Brain Synaptosomes
This assay is used a biochemical screen for compounds which block serotonin (5 HT) uptake, which may be useful as antidepressants and for the treatment of personality disorders such as obsessive compulsive disorder.
as §1
(§3) 1. Krebs-Henseleit Bicarbonate Buffer, pH 7.4 (KHBB): Make a 1 liter batch, containing the following salts.
Aerate for 60 minutes with 95% O2/5% CO2, check pH (7.4±0.1). 2. 0.32 M Sucrose: 21.9 g of sucrose, bring to 200 ml. 3. Serotonin creatinine SO4 is obtained from Sigma Chemical Co. A 0.1 mM stock solution is made up in 0.01N HCl. This is used to dilute the specific activity of radiolabeled 5 HT. 4. 5-[1,2-^3H(N)]-Hydroxytryptamine creatinine sulfate (Serotonin), specific activity 20-30 Ci/mmol is obtained from New England Nuclear. The final desired concentration of ^3H-5 HT in the assay is 50 nM. The dilution factor is 0.8. Therefore, the KHBB is made up to contain 62.5 nM [^3H]--5 HT. Add to 100 ml of KHBB.
5. For most assays, a 1 mM solution of the test compound is made up in suitable solvent and serially diluted such that the final concentration in the assay ranges from 2 x 10^-8 to 2 x 10^-5 M. Seven concentrations are used for each assay. Higher or lower concentrations may be used depending on the potency of the compound.
Male Wistar rats are decapitated and the brain rapidly removed. Whole brain minus cerebella is weighed and homogenized in 9 volumes of ice-cold 0.32 M sucrose using a Potter-Elvejhem homogenizer. Homogenization should be done with 4-5 up and down strokes at medium speeds to minimize synaptosome lysis. The homogenate is centrifuged at 1000 g for 10 minutes at 0° - 4°C. The supernatant (S1) is decanted and is used for uptake experiments.
• 800 µl KHBB + [^3H]-5 HT. • 20 µl Vehicle or appropriate drug concentration • 200 µl Tissue suspension
as §2, with “Liquicint®” for “Liquiscint®”

[1] = molecular target: T3, norepinephrine (NE) uptake (Rattus norvegicus, UniProt Q63380); assay: Inhibition of [3H]-norepinephrine uptake in rat whole brain or hypothalamic synaptosomes; conditions: [3H]-NE 50 nM
T3 construct: Either whole brain minus cerebella or hypothalamus is weighed and homogenized in 9 volumes of ice-cold 0.32 M sucrose; from tissue; host or cells: rat whole brain minus cerebella or hypothalamus, crude synaptosomal supernatant (S1)
T3 sequence (Q63380 1-617): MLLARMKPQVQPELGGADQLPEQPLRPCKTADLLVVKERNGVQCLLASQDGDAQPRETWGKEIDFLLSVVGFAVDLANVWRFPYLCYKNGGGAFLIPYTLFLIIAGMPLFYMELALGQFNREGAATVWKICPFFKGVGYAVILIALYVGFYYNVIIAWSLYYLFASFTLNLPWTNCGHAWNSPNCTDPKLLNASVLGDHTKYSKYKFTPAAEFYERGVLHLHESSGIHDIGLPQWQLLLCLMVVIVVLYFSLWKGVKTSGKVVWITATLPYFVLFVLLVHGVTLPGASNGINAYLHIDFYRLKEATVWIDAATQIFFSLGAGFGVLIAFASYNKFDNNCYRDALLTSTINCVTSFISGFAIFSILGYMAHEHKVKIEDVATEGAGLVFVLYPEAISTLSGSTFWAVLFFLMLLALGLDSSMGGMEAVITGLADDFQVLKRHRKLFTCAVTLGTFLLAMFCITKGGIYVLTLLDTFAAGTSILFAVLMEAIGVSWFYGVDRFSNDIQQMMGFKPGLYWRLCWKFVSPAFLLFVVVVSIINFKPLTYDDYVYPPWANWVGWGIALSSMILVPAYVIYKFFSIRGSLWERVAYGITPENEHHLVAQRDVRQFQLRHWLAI
Experimental: Inhibition of [^3H]-Norepinephrine Uptake in Rat Whole Brain or Hypothalamic Synaptosomes
This assay is used as a biochemical screen for potential antidepressants which block norepinephrine uptake.
as §1, §3
Aerate for 60 minutes with 95% O2/5% CO2, check pH (7.4±0.1); then add bovine serum albumin (Sigma cat#A-7906) 1 mg/ml. 2. 0.32M Sucrose: 21.9 g of sucrose, bring to 200 ml. 3. L(-)-Norepinephrine bitartrate is obtained from Sigma Chemical Co. A 0.1 mM stock solution is made up in 0.01 N HCl. This is used to dilute the specific activity of theradiolabeled NE. 4. Levo-[Ring-2,5,6-^3H]-Norepinephrine (40-50 Ci/mmol) is obtained from New England Nuclear. The final desired concentration of [^3H]-NE in the assay is 50 nM. The dilution factor is 0.8. Therefore, the KHBB is made up to contain 62.5 nM [^3H]-NE. Add to 100 ml of KHBB.
5. For most assays, a 1 mM stock solution of the test compound is made up in a suitable solvent and serially diluted such that the final concentration in the assay ranges from 2 x 10^-8 to 2 x 10^-5 M. Seven concentrations are used for each assay. Higher or lower concentrations may be used depending on the potency of the compound.
Male Wistar rats are decapitated and the brain rapidly removed. Either whole brain minus cerebella or hypothalamus is weighed and homogenized in 9 volumes of ice-cold 0.32 M sucrose using a Potter-Elvejhem homogenizer. Homogenization should be done with 4-5 up and down strokes at medium speeds to minimize synaptosome lysis. TH homogenate is centrifuged at 1000 g for 10 minutes at 0° 4°C. The supernatant (S1) is decanted and is used for uptake experiments.
• 800 µl KHBB [^3H]-NE • 20 µl Vehicle or appropriate drug concentration • 200 µl Tissue suspension
Tubes are incubated at 37°C, under a 95% O2/5% CO2 atmosphere for 5 minutes. For each assay, 3 tubes are incubated with 20 µl of vehicle at 0°C in a ice bath. After incubation all tubes are immediately centrifuged at 4000 g for 10 minutes. The supernatant fluid is aspirated and the pellets dissolved by adding 1 ml of solubilizaer (Triton® X-100 + 50% EtOH, 1:4 v/v). The tubes are vigorously shaken decanted into scientillation vials, and counted in 10 ml of Liquiscint® scintillation countering cocktail. Active uptake is the difference between cpm at 37°C. and 0°C. The percent inhibition at each drug concentration is the mean of three determinations IC50 values are derived from log-probit analysis.

SMILES	Whole brain synaptosomes % inhibition at 3.16 µm DA (dopamine (DA) uptake) [%]	Whole brain synaptosomes % inhibition at 3.16 µm 5HT (serotonin (5HT) uptake) [%]	Whole brain synaptosomes % inhibition at 3.16 µm NE [1] [%]
Cl.O=S1(=O)c2ccccc2C(c2ccc(F)cc2)N1C1CCNCC1 (stereo not drawn) [3-(4-Fluorophenyl)-2-(4-piperidinyl)-2,3-dihydrobenzo[d]isothiazole-1,1-dioxide hydrochloride]	30.34	37.92	25.02
COc1cc(C(C)=O)ccc1OCCCN1CCC(N2C(c3ccc(Cl)cc3)c3ccccc3S2(=O)=O)CC1 (stereo not drawn) [1-[4-(3-{4-[3-(4-Chlorophenyl)-1,1-dioxo-3H-benzo[d]isothiazol-2-yl]-1-piperidin-1-yl}-propoxy)-3-methoxyphenyl]-ethanone maleate]	67.94	48.78	55.23
O=C(O)/C=C\C(=O)O.O=C1c2ccccc2C(=O)N1CCCN1CCC(N2C(c3ccc(Cl)cc3)c3ccccc3S2(=O)=O)CC1 (stereo not drawn) [2-(3-{4-[3-(4-Chlorophenyl)-1,1-dioxo-3H-benzo[d]isothiazol-2-yl]piperidin-1-yl}propyl)-isoindol-1,3-dione maleate]	57.36	29.02	28.37
O=C(O)/C=C\C(=O)O.O=S1(=O)c2ccccc2C(c2ccc(Cl)cc2)N1C1CCN(CCO)CC1 (stereo not drawn) [2-{4-[3-(4-Chlorophenyl)-1,1-dioxo-3H-benzo[d]isothiazol-2-yl]-piperidin-1-yl}-ethanol maleate]	18.71	3.68	8.71
